Reference: US12186283B2, “Bismuth-thiol compositions and methods of use” (Microbion Corporation, priority 2018, dated 2025)
≈ marks a conversion by molar mass, not a printed value. Marks after values point to notes of the source that are not given here.

Legend:
[1] = tested on: N. gonorrhoeae; assay: Agar dilution MIC (Example 11); assay type: cell-based, Neisseria gonorrhoeae; conditions: QC isolate, ciprofloxacin-resistant and ceftriaxone non-susceptible isolates
[2] = tested on: E. coli ATCC 25922; assay: Broth microdilution MIC, QC organism (Example 13, Table 110); assay type: cell-based, Escherichia coli
Excerpt: MECs were only reported where observed.

[3] = tested on: Staphylococcus aureus (MRSA); assay: Broth microdilution MIC (Example 11); assay type: cell-based; conditions: MRSA, LevR, CipR, EryR, OxR
[4] = Rat single-dose PK: lung tissue BisEDT; conditions: for concentration at 24 h / concentration at 96 h: F344, rat, inhaled, 100 μg/kg
[5] = tested on: E. coli ATCC 25922; conditions: CLSI established QC range; cited from earlier work
[6] = Particle size distribution of BisEDT microparticles; assay type: physicochemical; conditions: microparticles resuspended in 2% poloxamer 188, Nanosizer/Zetasizer Nano-S
Method: The dried particulate matter was characterized to assess the particle size properties. Briefly, microparticles were resuspended in 2% poloxamer 188 (Pluronic® F-68) (BASF, Mt. Olive, NJ) and the suspension was sonicated for 10 minutes in a water bath sonicator at standard setting prior to analysis using a Nanosizer/Zetasizer Nano-S particle analyzer (model ZEN1600 (without zeta-potential measuring capacity), Malvern Instruments, Worcestershire, UK) according to the manufacturer's recommendations.
It was observed that careful control of the reaction temperature and the rate of 1,2 ethanedithiol addition had pronounced impact on the BisEDT particle size distribution.

[7] = Rat tolerance of BisEDT (inhalation, IV, oral); conditions: 100 μg/kg inhalation and IV and 250 μg/kg oral, single dose
[8] = tested on: S. aureus ATCC 29213; conditions: S. aureus ATCC 29213, QC organism; cited from earlier work
[9] = tested on: Pseudomonas aeruginosa; assay: Broth microdilution MIC (Example 12)
[10] = tested on: Escherichia coli; assay: Broth microdilution MIC (Example 12)
[11] = tested on: Burkholderia cepacia complex; assay: Broth microdilution MIC (Example 10); conditions: initial MIC testing
[12] = tested on: P. aeruginosa; assay: Broth microdilution MIC (Example 10)
[13] = tested on: Klebsiella pneumoniae; assay: Broth microdilution MIC (Example 12)

CC(S)C(C)S.[Bi] (stereo not drawn) [BisBDT, bismuth-2,3-butanedithiol]
MIC values (range across isolates) [1]: 0.06 to 0.25 µg/mL | MIC 24 hr [2]: 0.5^a | MIC ([3]; S. aureus MMX 5373, CCR): ≤0.06 µg/mL | MIC ([3]; S. aureus MMX 6311, CCR): ≤0.06 µg/mL | MIC ([3]; S. aureus MMX 9204): ≤0.06 µg/mL | MIC ([3]; S. aureus MMX 9205, CCR): ≤0.06 µg/mL

C1C[S][Bi]([S]CC[S][Bi]2[S]CC[S]2)[S]1 [BisEDT, bismuth-1,2-ethanedithiol]
concentration at 24 h ([4]; lung fluid): 123 µg/mL | concentration at 96 h ([4]; lung fluid): 78 µg/mL | concentration at 24 h ([4]; lung tissue): 4090 ng/g | concentration at 96 h ([4]; lung tissue): 2600 ng/g | half-life of lung levels ([4]; rat, IV dosing): about 24 hour | lung levels relative to inhalation group ([4]; rat, IV dosing 100 μg/kg): < 5% | lung levels ([4]; rat, oral dosing 250 μg/kg): no lung levels | lung tissue half-life ([4]; rat, single inhalation dose (100 μg/kg lung deposited)): about 4 days | Mean BisEDT Conc, lung at sacrifice ([4]; rat, single inhaled dose 47 μg/kg, sac time 30 hr): 4.8 ng/g | Mean BisEDT Conc, lung at sacrifice ([4]; rat, single inhaled dose 124 μg/kg, sac time 30 hr): 5.9 ng/g | Mean BisEDT Conc, lung at sacrifice ([4]; rat, single inhaled dose 400 μg/kg, sac time 30 hr): 12.1 ng/g | Mean BisEDT Conc, lung at sacrifice ([4]; rat, single inhaled dose 3000 μg/kg, sac time 24 hr): 82.3 ng/g | QC Range 24 hr [5]: 0.5-4 | peak VMD [6]: about 1.3 microns | tolerability [7]: tolerated | MIC, QC range [8]: (0.12-1) μg/mL

C[C@@H](O)[C@H]1C(=O)N2C(C(=O)O)=C(S[C@@H]3CN[C@H](C(=O)N(C)C)C3)[C@H](C)[C@H]12 [MEM]
MIC ([9]; P. aeruginosa ATCC 27853, QC organism): 0.25 µg/mL (≈ 0.652 µM) | MIC ([9]; Pseudomonas aeruginosa CDC 230, VIM/OXA): >8 µg/mL | MIC ([9]; Pseudomonas aeruginosa CDC 231, KPC/OXA): >8 µg/mL | MIC ([9]; Pseudomonas aeruginosa CDC 241, IMP/OXA): >8 µg/mL | MIC ([9]; Pseudomonas aeruginosa CDC 246, NDM/OXA): >8 µg/mL | MIC ([9]; Pseudomonas aeruginosa CDC 250, NDM/OXA): >8 µg/mL | MIC ([9]; Pseudomonas aeruginosa CDC 356, KPC): >8 µg/mL | MIC ([9]; Pseudomonas aeruginosa CDC 439, IMP): >8 µg/mL | MIC ([9]; Pseudomonas aeruginosa CDC 444, VIM): >8 µg/mL | MIC ([9]; Pseudomonas aeruginosa CDC 457, VIM): >8 µg/mL | MIC ([9]; Pseudomonas aeruginosa CDC 516, KPC/AmpC): >8 µg/mL | MIC ([9]; Pseudomonas aeruginosa CDC 518, KPC/AmpC): >8 µg/mL | MIC ([10]; E. coli ATCC 25922, QC organism): ≤0.008 µg/mL | MIC ([10]; E. coli ATCC 35218, QC organism): ≤0.008 µg/mL | MIC ([10]; Escherichia coli ATCC 35218, ESBL): ≤0.008 µg/mL | MIC ([10]; Escherichia coli ATCC BAA-2471, NDM): >8 µg/mL | MIC ([10]; Escherichia coli CDC 114, ESBL/KPC): 2 µg/mL (≈ 5.22 µM) | MIC ([10]; Escherichia coli CDC 118, ESBL/NDM): 0.06 µg/mL (≈ 0.156 µM) | MIC ([10]; Escherichia coli CDC 435, NDM): >8 µg/mL | MIC ([10]; Escherichia coli CDC 451, KPC): 1 µg/mL (≈ 2.61 µM) | MIC ([10]; Escherichia coli CDC 503, ESBL/NDM): 8 µg/mL (≈ 20.9 µM) | MIC ([10]; Escherichia coli MMX 5745, KPC): 2 µg/mL (≈ 5.22 µM) | MIC ([10]; Escherichia coli MMX 5755, ESBL): 0.015 µg/mL (≈ 0.0391 µM) | MIC ([10]; Escherichia coli MMX 5756, ESBL): ≤0.008 µg/mL | MIC ([10]; Escherichia coli MMX 5758, ESBL): ≤0.008 µg/mL | MIC ([11]; B. cenocepacia isolate 0548 (CIP-R)): 4 µg/mL (≈ 10.4 µM) | MIC ([11]; B. cenocepacia isolate 0813 (CPI-I)): 2 µg/mL (≈ 5.22 µM) | MIC ([11]; B. cenocepacia isolate 1631): 4 µg/mL (≈ 10.4 µM) | MIC ([11]; B. cenocepacia isolate 1783): 4 µg/mL (≈ 10.4 µM) | MIC ([11]; B. cenocepacia isolate 8555): 4 µg/mL (≈ 10.4 µM) | MIC ([11]; B. cepacia isolate 0546): 4 µg/mL (≈ 10.4 µM) | MIC ([11]; B. cepacia isolate 0547): 2 µg/mL (≈ 5.22 µM) | MIC ([11]; B. cepacia isolate 1793): 4 µg/mL (≈ 10.4 µM) | MIC ([11]; B. cepacia isolate 1794): 4 µg/mL (≈ 10.4 µM) | MIC ([11]; B. cepacia isolate 9040): 4 µg/mL (≈ 10.4 µM) | MIC ([11]; B. multivorans isolate 1580 (CIP-R)): 2 µg/mL (≈ 5.22 µM) | MIC ([11]; B. multivorans isolate 1791): 4 µg/mL (≈ 10.4 µM) | MIC ([11]; B. multivorans isolate 1795 (MEM-I, CIP-R)): 8 µg/mL (≈ 20.9 µM) | MIC ([11]; B. multivorans isolate 5665 (CIP-I)): 2 µg/mL (≈ 5.22 µM) | MIC ([11]; B. multivorans isolate 8952 (CIP-I)): 2 µg/mL (≈ 5.22 µM) | MIC ([12]; P. aeruginosa isolate 103 (ATCC 25922), QC strain, initial MIC testing): 1 µg/mL (≈ 2.61 µM) | MIC ([12]; P. aeruginosa isolate 103 (ATCC 25922), during FIC testing, each agent tested alone for QC, one replicate): 1 µg/mL | MIC ([12]; P. aeruginosa isolate 1497 (TOB-R, AMK-R, CIP-I, AZT-R, COL-R), initial MIC testing): 0.06 µg/mL (≈ 0.156 µM) | MIC ([12]; P. aeruginosa isolate 1530 (TOB-R, AMK-R, CIP-R), initial MIC testing): 0.5 µg/mL (≈ 1.3 µM) | MIC ([12]; P. aeruginosa isolate 1553 (TOB-R, AMK-R, CIP-R), initial MIC testing): 0.5 µg/mL (≈ 1.3 µM) | MIC ([12]; P. aeruginosa isolate 6322 (MEM-R, TOB-R, AMK-R, CIP-R, AZT-R), initial MIC testing): 16 µg/mL (≈ 41.7 µM) | MIC ([12]; P. aeruginosa isolate 6977 (MEM-I, TOB-R, CIP-R, AZT-I), initial MIC testing): 4 µg/mL (≈ 10.4 µM) | MIC ([12]; P. aeruginosa isolate 7745 (MEM-R, CIP-R, AZT-R), initial MIC testing): 16 µg/mL (≈ 41.7 µM) | MIC ([12]; P. aeruginosa isolate 7754 (MEM-R, TOB-R, CIP-R, AZT-I), initial MIC testing): 32 µg/mL (≈ 83.4 µM) | MIC ([12]; P. aeruginosa isolate 7762 (MEM-I, CIP-I), initial MIC testing): 4 µg/mL (≈ 10.4 µM) | MIC ([12]; P. aeruginosa isolate 7871 (MEM-R, AZT-I), initial MIC testing): 8 µg/mL (≈ 20.9 µM) | MIC ([12]; P. aeruginosa isolate 7874, initial MIC testing): 1 µg/mL (≈ 2.61 µM) | MIC ([12]; P. aeruginosa isolate 7886 (MEM-R, CIP-R, AZT-R), initial MIC testing): 32 µg/mL (≈ 83.4 µM) | MIC ([12]; P. aeruginosa isolate 8797 (MEM-R, TOB-R, AMK-R, CIP-R, AZT-R, COL-R), initial MIC testing): 32 µg/mL (≈ 83.4 µM) | MIC ([12]; P. aeruginosa isolate 8798 (MEM-R, TOB-R, AMK-R, CIP-R, AZT-R, COL-R), initial MIC testing): 64 µg/mL (≈ 167 µM) | MIC ([12]; P. aeruginosa isolate 9108 (CIP-R, AZT-I), initial MIC testing): 0.5 µg/mL (≈ 1.3 µM) | MIC ([13]; K. pneumoniae ATCC BAA-1705, QC organism): 8 µg/mL (≈ 20.9 µM) | MIC ([13]; Klebsiella pneumoniae ATCC BAA-1705, ESBL/KPC): 8 µg/mL (≈ 20.9 µM) | MIC ([13]; Klebsiella pneumoniae CDC 112, KPC): >8 µg/mL | MIC ([13]; Klebsiella pneumoniae CDC 113, ESBL/KPC): >8 µg/mL | MIC ([13]; Klebsiella pneumoniae CDC 115, ESBL/KPC): >8 µg/mL | MIC ([13]; Klebsiella pneumoniae CDC 120, ESBL/KPC): >8 µg/mL | MIC ([13]; Klebsiella pneumoniae CDC 126, ESBL/KPC): 4 µg/mL (≈ 10.4 µM) | MIC ([13]; Klebsiella pneumoniae CDC 129, ESBL/KPC): 8 µg/mL (≈ 20.9 µM) | MIC ([13]; Klebsiella pneumoniae CDC 135, ESBL/VIM): 1 µg/mL (≈ 2.61 µM) | MIC ([13]; Klebsiella pneumoniae CDC 138, ESBL/NDM): >8 µg/mL | MIC ([13]; Klebsiella pneumoniae CDC 158, ESBL/NDM/OXA): >8 µg/mL | MIC ([13]; Klebsiella pneumoniae MMX 9029, ESBL): 0.015 µg/mL (≈ 0.0391 µM)
